These results are taken from article PMC7790557, “Pleiotropic Properties of Amphiphilic Dihydropyridines, Dihydropyridones, and Aminovinylcarbonyl Compounds” (Oxidative Medicine and Cellular Longevity, 2020).

Series [1] is described as follows: Cytotoxicity, crystal violet (CV) assay, MH-22A. Format: cell-based, mouse. The note with it: mouse, summarises CV and MTT values, read-out: cytotoxicity towards MH-22A cells; for IC50 at 72 h: MH-22A cells (hepatoma). How it is done:
(§1) After incubation, the staining solution was removed. The cells were washed 4 times with water.

The subject of series [2] is MH-22A (mouse hepatoma). The series can be described thus: Cytotoxicity, crystal violet (CV) assay, MH-22A. The note with it: Mus musculus, read-out: MH-22A IC50 (CV). Type of series: cell-based. How it is done: as §1
The test system of series [3] is HT-1080 (human lung fibrosarcoma). The series can be described thus: Cytotoxicity, MTT assay, HT-1080. Type of series: cell-based. The note with it: Homo sapiens, read-out: HT-1080 IC50 (MTT). An excerpt: (§2) Reduction takes place only when mitochondrial reductase enzymes are active, and therefore, conversion is directly related to the number of viable cells which can be quantified by the absorbance of the solution (between λ = 500 and 600 nm) using a spectrophotometer.
On the technique in general: Tetrazolium assays rely on reduction of a dye to a coloured formazan, in cell work by metabolically active cells.

Series [4] has as its system MH-22A (mouse hepatoma). The series can be described thus: Cytotoxicity, MTT assay, MH-22A. Format: cell-based. The note with it: Mus musculus, read-out: MH-22A IC50 (MTT).
Source text: as §2

Series [5] in a line: in vitro. Format: cell-based. The note with it: human and mouse, summarises both cell lines, CV and MTT, read-out: cytotoxicity on cancer cell lines HT-1080 and MH-22A. How it is done: as §1
A short description of series [6]: Electrochemical oxidation potentials, cyclic voltammetry. Format: physicochemical. The note with it: glassy carbon electrode, dry acetonitrile; for Oxidation potential E^ox: Table 4, vs Ag/Ag+, 0.1 M TBABF4, tested as perchlorates; for electrooxidation potential: cyclic voltammetry. How it is done: A stationary glassy carbon disk electrode (d = 0.5 mm) served as the working electrode, while the counterelectrode was a Pt wire. The oxidation potentials were measured relative to a Ag/Ag^+ reference electrode. Acetonitrile was dried over P2O5 and distilled; the distillate was stored over CaH2 and redistilled just before use. Recrystallized tetrabutylammonium tetrafluoroborate (TBABF4) was used as a supporting electrolyte at 0.1 M concentration.
The electrochemical oxidation of the selected compounds studied in this work was performed by cyclic voltammetry on a stationary glassy carbon electrode in dry acetonitrile; the data is presented in Table 4. The perchlorates of the tested amphiphiles were obtained from the corresponding bromides by treating their abs. MeOH solutions with excess of conc. HClO4 according to the procedure elaborated by Turovska et al..

Series [7] relates to HT-1080 (human lung fibrosarcoma). The series can be described thus: Cytotoxicity, crystal violet (CV) assay, HT-1080. The note with it: Homo sapiens, HT-1080, 72 h, read-out: HT-1080 IC50 (CV).
Series [8] in a line: Cytotoxicity, crystal violet (CV) assay, HT-1080. The note with it: human.
For series [9], the system named is NIH3T3 (mouse embryonic fibroblast). The series can be described thus: Basal cytotoxicity test, Neutral Red Uptake (NRU) assay. The note with it: for IC50: Mus musculus, NIH3T3, 24 h.
Method: The NRU cytotoxicity assay procedure is based on the ability of viable cells to incorporate and bind neutral red, a supravital dye.
Balb/c NIH 3T3 (mouse Swiss albino embryo fibroblast, ATCC® CRL-1658™) cells (9000 cells/well) were placed into 96-well plates for 24 h in Dulbecco's modified Eagle's medium (DMEM) containing 5% fetal bovine serum. Then, the cells were exposed to the test compound over a range of seven concentrations (1000, 316, 100, 31, 10, 3, and 1 μg/ml) for 24 h. Untreated cells were used as a control. After 24 h, the medium was removed from all plates. Then, 150 μl of neutral red solution was added (0.05 mg/ml NR in DMEM 24 h preincubated at 37°C and then filtered before use through a 0.22 μm syringe filter). Plates were incubated for 3 h, and then, the cells were washed three times with PBS. The dye within viable cells was released by extraction with a mixture of acetic acid, ethanol, and water (1 : 50 : 49). The absorbance of neutral red was measured using a spectrophotometer multiplate reader (Tecan Infinite M1000) at 540 nm. The optical density (OD) was calculated using the following formula: OD (treated cells) × 100/OD (control cells). The IC50 values were calculated using the GraphPad Prism® 3.0 program.
The subject of series [10] is cancer cell lines HT-1080 and MH-22A. Briefly: in vitro. Type of series: cell-based. The procedure:
as §1

Series [11] is described as follows: in vitro. The note with it: mouse. An excerpt:
Data from the in vitro tests were used for estimating the starting dose for acute oral systemic toxicity tests in the rodent. The in vivo starting dose is an estimated LD50 value calculated by inserting the in vitroIC50 value into a regression formula: log LD50 (mM/kg) = 0.439 log IC50 (mM) + 0.621 [23–25]. […] Using an alternative in vitro method allows the comparison between possibly toxic new compounds and selecting compounds for further study vastly reducing the number of animal experiments.
Additionally, the compound influence on “normal” mouse fibroblasts (NIH3T3) was estimated for the studies of structure-activity relationships and exploration of the effect of substituents.

[12] abbreviates: HT-1080, Table 1, 72 h exposure.
[13] abbreviates: HT-1080, Table 3, 72 h exposure.
Where [14] appears, read: NIH3T3 LD50, Table 3, calculated from NIH3T3 IC50 by regression formula.
Where [15] appears, read: read-out: NIH3T3 IC50 (NR), Table 3, 24 h exposure.

Like-named read-outs stand apart in the source and are kept apart here.

On to `CCCCCCCCCCCCOC(=O)C1=C(C[n+]2ccccc2)NC(C[n+]2ccccc2)=C(C(=O)OCCCCCCCCCCCC)C1c1ccccc1.[Br-].[Br-]` [compound 10, 1,1'-((3,5-Bis((dodecyloxy)carbonyl)-4-phenyl-1,4-dihydropyridine-2,6-diyl)bis(methylene))bis(pyridin-1-ium) dibromide], for which the IC50 was 3 to 6 µg/mL in series [1]; 6 ± 1 µg/mL in series [2] (72 h); 3 ± 0.3 µg/mL in series [3] (HT-1080, 72 h); 3 ± 0.8 µg/mL in series [4] (72 h); 3 ± 0.5 µg/mL in series [7]; 100 ± 6 µg/mL in [9] (read-out: NIH3T3 IC50 (NR)). The IC50 at 72 h is 3 to 6 µg/mL in [5] and roughly 3 µg/mL in series [8]. Moreover, the “Oxidation potential E^ox” value in series [6] is 1.58 V. The electrooxidation potential in series [6] is reported as 1.57–1.58 V.
For `CCCCCCCCCCCCOC(=O)C1=C(C[n+]2ccc(C)cc2)NC(C[n+]2ccc(C)cc2)=C(C(=O)OCCCCCCCCCCCC)C1c1ccccc1.[Br-].[Br-]` [compound 12, 1,1'-((3,5-Bis((dodecyloxy)carbonyl)-4-phenyl-1,4-dihydropyridine-2,6-diyl)bis(methylene))bis(4-methylpyridin-1-ium) dibromide], the IC50 at 72 h in series [1] lay within 29 to 40 µg/mL; in [8] (HT-1080 cells (fibrosarcoma)) it was 5 to 10 µg/mL. Besides, the IC50 turned out to be 40 ± 2 µg/mL in series [2] (Table 1, 72 h exposure); 5 ± 1 µg/mL in series [3] (setting [12]); 29 ± 2 µg/mL in [4] (Table 1, 72 h exposure); 10 ± 2 µg/mL in [7]; 79 ± 11 µg/mL in series [9] (read-out: NIH3T3 IC50 (NR)).
Turning to `CCCCCCCCCCCCOC(=O)C1=C(C[n+]2cccc(C(C)=O)c2)NC(C[n+]2cccc(C(C)=O)c2)=C(C(=O)OCCCCCCCCCCCC)C1c1ccccc1.[Br-].[Br-]` [compound 14, 1,1'-((3,5-Bis((dodecyloxy)carbonyl)-4-phenyl-1,4-dihydropyridine-2,6-diyl)bis(methylene))bis(3-acetylpyridin-1-ium) dibromide], the results for the IC50 at 72 h in [1] and in series [8] (HT-1080 cells (fibrosarcoma)) were 50 to 100 µg/mL and roughly 3 µg/mL, respectively. The IC50 was 100 ± 13 µg/mL in series [2] (Table 1, 72 h exposure); 3 ± 0.3 µg/mL in series [3] (setting [12]); 49 ± 9 µg/mL in series [4] (Table 1, 72 h exposure); 3 ± 0.4 µg/mL in [7]; 922 ± 24 µg/mL in series [9] (read-out: NIH3T3 IC50 (NR)). For the same compound, in series [9], the “toxicity to noncancerous NIH3T3 cells (in words)” value was “practically nontoxic”.
For `CCCCCCCCCCCCOC(=O)C1=C(C[n+]2ccc(C(F)(F)F)cc2)NC(C[n+]2ccc(C(F)(F)F)cc2)=C(C(=O)OCCCCCCCCCCCC)C1c1ccccc1.[Br-].[Br-]` [compound 21, 1,1'-((3,5-Bis((dodecyloxy)carbonyl)-4-phenyl-1,4-dihydropyridine-2,6-diyl)bis(methylene))bis(4-(trifluoromethyl)pyridin-1-ium) dibromide], the IC50 at 72 h in series [1] fell in the range of 19 to 49 µg/mL; in series [8] (HT-1080 cells (fibrosarcoma)) it was 2 to 4 µg/mL. Also, the IC50 in series [2] (Table 1, 72 h exposure) came out at 49 ± 8 µg/mL; in series [3] (setting [12]) it was 4 ± 0.5 µg/mL; in series [4] (Table 1, 72 h exposure), 19 ± 6 µg/mL; in [7], 2 ± 0.3 µg/mL; in series [9] (read-out: NIH3T3 IC50 (NR)), 12 ± 4 µg/mL. Besides, in series [6], the “Oxidation potential E^ox” value is 1.63 V. The electrooxidation potential in [6] was 1.63 V.
In the case of `O=C(OCCCCCCCCCCCC(F)(F)F)C1=C(C[n+]2ccccc2)NC(C[n+]2ccccc2)=C(C(=O)OCCCCCCCCCCCC(F)(F)F)C1c1ccccc1.[O-][Cl+3]([O-])([O-])[O-].[O-][Cl+3]([O-])([O-])[O-]` [compound 22, 1,1'-((4-phenyl-3,5-bis(((12,12,12-trifluorododecyl)oxy)carbonyl)-1,4-dihydropyridine-2,6-diyl)bis(methylene))bis(pyridin-1-ium) diperchlorate], the IC50 at 72 h in series [1] was in the range of 10 to 19 µg/mL; in [8] (HT-1080 cells (fibrosarcoma)), 10 to 18 µg/mL. Also, the IC50 turned out to be 10 ± 1 µg/mL in series [2] (Table 1, 72 h exposure); 10 ± 2 µg/mL in [3] (setting [12]); 19 ± 5 µg/mL in series [4] (Table 1, 72 h exposure); 18 ± 5 µg/mL in [7]; 16 ± 3 µg/mL in [9] (read-out: NIH3T3 IC50 (NR), Table 1, 24 h exposure). The “Oxidation potential E^ox” value in series [6] came out at 1.57 V.
On to `O=C(OCCCCCCCCCCCC(F)(F)C(F)(F)C(F)(F)C(F)(F)C(F)(F)C(F)(F)C(F)(F)C(F)(F)F)C1=C(C[n+]2ccccc2)NC(C[n+]2ccccc2)=C(C(=O)OCCCCCCCCCCCC(F)(F)C(F)(F)C(F)(F)C(F)(F)C(F)(F)C(F)(F)C(F)(F)C(F)(F)F)C1c1ccccc1` [compound 25], for which the “cytotoxicity to cancer cell lines HT-1080 and MH-22A (in words)” value in series [10] is on record as “undetectable toxicity”. Moreover, the “toxicity to noncancerous NIH3T3 cells (in words)” value in [9] is given as “low toxicity”.
`CCCCCCCCCCCCOC(=O)c1c(C[n+]2ccccc2)nc(C[n+]2ccccc2)c(C(=O)OCCCCCCCCCCCC)c1-c1ccccc1.[Br-].[Br-]` [compound 27, 1,1’-((3,5-Bis(dodecyloxycarbonyl)-4-phenylpyridine-2,6-diyl)bis(methylene))-bis(pyridin-1-ium)dibromide]: the IC50 in series [2] (Table 1, 72 h exposure) came to 3 ± 0.3 µg/mL; in series [3] (setting [12]), 3.1 ± 0.5 µg/mL; in series [4] (Table 1, 72 h exposure) it was 3.3 ± 0.4 µg/mL; in series [7], 3.2 ± 0.8 µg/mL; in [9] (read-out: NIH3T3 IC50 (NR)) it was 900 ± 42 µg/mL. The IC50 at 72 h in series [5] (HT-1080 cells and MH-22A cells (the value covers both lines)) is roughly 3 µg/mL. Moreover, the LD50 – broadly, the dose at which mortality reaches 50% – in series [11] (LD50 (calculated, NIH3T3), calculated from NIH3T3 IC50) was 3950 mg/kg. Besides, the “toxicity to noncancerous NIH3T3 cells (in words)” value in [9] is listed as “not harmful at all”.
For the compound `CCCCCCCCCCCCCCCCOC(=O)/C=C(\N)C[N+](C)(C)C1CCCCC1` [compound 39, (Z,E)-N-(2-Amino-4-(hexadecyloxy)-4-oxobut-2-en-1-yl)-N,N-dimethylcyclohexanaminium chloride], the IC50 in series [2] (Table 3, 72 h exposure) was 1 ± 0.6 µg/mL; in [3] (setting [13]) it was 0.5 ± 0.1 µg/mL; in series [4] (Table 3, 72 h exposure), 0.2 ± 0.06 µg/mL; in series [7], 0.35 ± 0.06 µg/mL; in [9] (setting [15]), 0.7 ± 0.1 µg/mL. For the same compound, in series [11] (setting [14]), the LD50 is 97 mg/kg.
Regarding `CCCCCCCCCCCCCCCCOC(=O)/C=C(\N)C[N+](C)(C)CCCCCC` [compound 43, (Z,E)-N-(2-Amino-4-(hexadecyloxy)-4-oxobut-2-en-1-yl)-N,N-dimethylhexan-1-aminium chloride], the IC50 amounted to 2 ± 0.2 µg/mL in series [2] (Table 3, 72 h exposure); 2 ± 0.4 µg/mL in series [3] (setting [13]); 1 ± 0.2 µg/mL in series [4] (Table 3, 72 h exposure); 3 ± 0.6 µg/mL in [7]; 21 ± 6 µg/mL in [9] (setting [15]). In [11] (setting [14]), the 50% lethal dose (LD50) is 538 mg/kg.
As for `CCCCCCCCCCCCCCCCOC(=O)/C=C(\N)C[N+](C)(C)CCCCCCCCCCCC` [compound 45, (Z,E)-N-(2-Amino-4-(hexadecyloxy)-4-oxobut-2-en-1-yl)-N,N-dimethyldodecan-1-aminium chloride], in [11] (setting [14]), the LD50 is 573 mg/kg. The “IC50 in NIH3T3 cell lines” value in [9] is recorded as “around 30 μg/ml”. Besides, the IC50 in [9] (setting [15]) worked out at 25 ± 9 µg/mL.
Consider `CCCCCCCCCCCCOC(=O)/C=C(\N)C[n+]1ccccc1` [compound 47, (Z,E)-1-(2-Amino-4-(dodecyloxy)-4-oxobut-2-en-1-yl)pyridin-1-ium iodide], for which the IC50 in series [2] (Table 3, 72 h exposure) came out at 2 ± 0.1 µg/mL; in [7] it was 3 ± 0.4 µg/mL; in [9] (setting [15]) it was 14 ± 9 µg/mL. Moreover, in series [11] (setting [14]), the 50% lethal dose (LD50) was 403 mg/kg.
The matching figures for `CCCCCCCCCCCC[N+](C)(C)C/C(N)=C/C(=O)OCCCCCCCCCC` [compound 48, (Z,E)-N-(2-Amino-4-(decyloxy)-4-oxobut-2-en-1-yl)-N,N-dimethyldodecan-1-aminium chloride]: 2 ± 0.2 µg/mL, 3 ± 0.4 µg/mL, 17 ± 3 µg/mL and 485 mg/kg.
